Laboratory results taken from patent EP0061157A1, “2-Benzoylamino substituted benzylamine derivative and a process for preparation thereof” (Hokuriku Pharmaceutical Co.,Ltd, priority 1981, dated 1982).
pEC50: −log10 of the molar value. Where a name gives a salt, the structure may show the parent alone. Marks after values point to notes of the source that are not given here.

How the values were obtained:
Acute toxicity test = settings: mouse, in vivo, mice, Litchfield-Wilcoxon, dead animals within 7 days
Description: Male mice of ddy-strain weighing 20 to 25 g were used. Drugs were administered orally and intraperitoneally to 10 mice in each group. LD50 was calculated by the Litchfield-Wilcoxon method from dead animals within 7 days.

tracheal secretory cells = experiment: Effect on the secretory activity of the tracheal secretory cells (isolated tracheal strips, AB/PAS staining, A^IWR); format: cell-based, dogs; settings: for Acinar Inner Diameter of Submucosal Gland to Wall Ratio (A^IWR): dog tracheal strips incubated 30 minutes, control 5.0 x 10^-2; for activation at 10 µM / activation at 1 µM / activation at 0.1 µM: Canis lupus familiaris, 0.5 h, relative to control, read-out: Increasing Rate in A^IWR (%)
Description: Experiments were performed following the method of Yanaura et al. (Nippon Yakurigaku Zasshi, 77, 559 - 568 (1981)). Male mongrel dogs weighing 10 to 12 kg were anesthetized with sodium pentobarbital (30 mg/kg, i.v.). The trachea was quickly excised about 10 cm long and rapidly […] to a Hanks' solution (95% 02 - 5% CO2, 37 + 1° ). Connective tissues around were removed and the trachea was cut into strips about 2 cm long. The tracheal strips were preincubated for 30 minutes in Hanks' solution, and then drugs were added to the solution and the mixtures were further incubated for 30 minutes. The tracheal strips were then fixed with a 10% formaldehyde isotonic solution followed by dehydrating in a series of graded ethanol concentrations and paraffinembedding in a conventional manner. Sections 4 µm thick were cut with a Jung type microtome and stained with alcian blue (pH 2.5) - periodic acid Schiff (AB (pH 2.5)/PAS). The specimens were studied by the optical microscopic observation with the effects of drugs on the secretory activities of the tracheal secretory cells and on the dissolution of acid glycoprotein in submucosal glandular cells of the tracheal. A thickness between basement membrance and cartilage (thickness of […]; wall is referred to as "W"), and acinar inner diameter of submucosal gland (A^I) were measured. Then, acinar inner diameter of submucosal gland to wall ratio (A^IWR) was calculated. Increase of A^IWR reflects enhancement of the secretory activity in submucosal gland. If test drug has a significant increase in A^IWR, it has a respiratory tract fluid (RTF) - increasing effect.

[1] = tested on: acid glycoprotein in submucosal glandular cells of the trachea; experiment: Effect on the dissolution of acid glycoprotein in submucosal glandular cells of the trachea (isolated tracheal strips, AB/PAS staining); format: cell-based, dogs; settings: for Ratio of Glandular Cells Containing Acid Glycoprotein to Total Glandular Cells (%): control 72.4; for pEC50: Canis lupus familiaris, dose required for decreasing acid glycoprotein by 50%, calculated from Table III data, read-out: ED50 (the source's name); for Potency Ratio: from ED50, dose of reference drug 1 made 1
Description: Experiments were performed following the method of Yanaura et al. (Nippon Yakurigaku Zasshi, 77, 559 - 568 (1981)). Male mongrel dogs weighing 10 to 12 kg were anesthetized with sodium pentobarbital (30 mg/kg, i.v.). The trachea was quickly excised about 10 cm long and rapidly […] to a Hanks' solution (95% 02 - 5% CO2, 37 + 1° ). Connective tissues around were removed and the trachea was cut into strips about 2 cm long. The tracheal strips were preincubated for 30 minutes in Hanks' solution, and then drugs were added to the solution and the mixtures were further incubated for 30 minutes. The tracheal strips were then fixed with a 10% formaldehyde isotonic solution followed by dehydrating in a series of graded ethanol concentrations and paraffinembedding in a conventional manner. Sections 4 µm thick were cut with a Jung type microtome and stained with alcian blue (pH 2.5) - periodic acid Schiff (AB (pH 2.5)/PAS). The specimens were studied by the optical microscopic observation with the effects of drugs on the secretory activities of the tracheal secretory cells and on the dissolution of acid glycoprotein in submucosal glandular cells of the tracheal. As a tracheal mucus dissolution activity, an effect on the dissolution of acid glycoprotein in submucosal glandular cells was observed. In double staining with AB (pH 2.5)/PAS, submucosal glandular cells containing much acid glycoprotein were strongly stained blue because of the reaction with AB. When acid glycoprotein in glandular cells is dissolved and its acid groups were lost, it is stained with PAS instead of AB. Consequently, submucosal glandular cells turned to red from blue in color. The ratio of blue glandular cells to total glandular cells was observed, and the effect on the dissolution of acid glycoprotein was estimated by decrease in the ratio. Based on the above data, a dose of each of the compounds tested required for decreasing acid glycoprotein by 50% (ED50) was calculated. Further, a potency ratio was determined when the dose of reference drug 1 was made 1.

[2] = compared with reference drugs 1 and 2

Row | SMILES | LD50 at 168 h (Acute toxicity test; ip, I.P.) | LD50 at 168 h (Acute toxicity test; po, P.O.) | Acinar Inner Diameter of Submucosal Gland to Wall Ratio (A^IWR) (tracheal secretory cells; 1 x 10^-5M) | Acinar Inner Diameter of Submucosal Gland to Wall Ratio (A^IWR) (tracheal secretory cells; 1 x 10^-6M) | Acinar Inner Diameter of Submucosal Gland to Wall Ratio (A^IWR) (tracheal secretory cells; 1 x 10^-7M) | activation at 10 µM (tracheal secretory cells; 1 x 10^-5M) | activation at 1 µM (tracheal secretory cells; 1 x 10^-6M) | activation at 0.1 µM (tracheal secretory cells; 1 x 10^-7M) | Ratio of Glandular Cells Containing Acid Glycoprotein to Total Glandular Cells (%) ([1]; 1 x 10^-5 M) | Ratio of Glandular Cells Containing Acid Glycoprotein to Total Glandular Cells (%) ([1]; 1 x 10^-6 M) | Ratio of Glandular Cells Containing Acid Glycoprotein to Total Glandular Cells (%) ([1]; 1 x 10^-7 M) | pEC50 [1] | Potency Ratio [1] | enhancement in A^IWR, times as strong as that of reference drugs 1 and 2 (tracheal secretory cells; [2]) | mucolytic activity (dissolution of acid glycoprotein), times stronger than that of reference drugs 1 and 2 [1, 2]
1 | CN(Cc1cc(Br)cc(Br)c1N)C1CCCCC1.Cl [Reference Drug 2, 2-Amino-3,5-dibromo-N-cyclohexyl-N-methylbenzylamine hydrochloride] | 2320 mg/kg | 9000 mg/kg | 6.2 x 10^-2* | 5.6 x 10^-2 | 5.2 x 10^-2 | 24% | 12% | 4% | 17.5** % | 30.0** % | 66.2% | 5.89 | 1.92 | – | –
2 | COc1cc(C(=O)Nc2c(Br)cc(Br)cc2CN(C)C2CCCCC2)ccc1OC(C)=O [Reference Drug 1, 2-(4-Acetoxy-3-methoxybenzoylamino)-3.5-dibromo-N-cyclohexyl-N-methylbenzylamine hydrochloride] | > 4000 mg/kg | > 12000 mg/kg | 6.5 x 10^-2** | 6.2 x 10^-2* | 5.3 x 10^-2 | 30% | 24% | 6% | 23.8** % | 46.8** % | 71.0% | 5.60 | – | – | –
3 | COc1cc(C(=O)Nc2c(Br)cc(Br)cc2CN(C)C2CCCCC2)ccc1O.Cl [Compound of This Invention, 2-(4-Hydroxy-3-methoxybenzoylamino)-3,5-dibromo-N-cyclohexyl-N-methylbenzylamine hydrochloride] | > 4000 mg/kg | > 12000 mg/kg | 7.3 x 10^-2** | 7.1 x 10^-2** | 6.1 x 10^-2* | 46% | 42% | 22% | 10.6** % | 21.6** % | 42.0** % | 6.64 | 10.87 | about 10 times | 10 times
